In ChEMBL document CHEMBL1127472, “Inhibition of topoisomerase I by anthracycline antibiotics: evidence for general inhibition of topoisomerase I by DNA-binding agents” (J Med Chem, 1994):

Columns and labels:
[1] = tested on: DNA topoisomerase 1 (Bos taurus); test: Ratio of DNA relaxation times by topoisomerase in presence of 2 uM of compound (t1/e(+drug) / t 1/e(-drug))
[2] = tested on: DNA topoisomerase 1 (Bos taurus); test: Ratio of DNA relaxation times by topoisomerase in presence of 20 uM of compound (t1/e(+drug) / t 1/e(-drug)); Initial complete inhibition
[3] = tested on: DNA topoisomerase 1 (Bos taurus); test: Ratio of DNA relaxation times by topoisomerase in presence of 9 uM of compound (t1/e(+drug) / t 1/e(-drug))
[4] = tested on: DNA topoisomerase 1 (Bos taurus); test: Ratio of DNA relaxation times by topoisomerase in presence of 20 uM of compound (t1/e(+drug) / t 1/e(-drug)); Complete inhibition
DNA [5] = test: Binding constant was measured for DNA binding at 20 uM concentration
[6] = tested on: DNA topoisomerase 1 (Bos taurus); test: Ratio of DNA relaxation times by topoisomerase in presence of 17 uM of compound (t1/e(+drug) / t 1/e(-drug)); Initial complete inhibition
DNA [7] = test: Binding constant was measured for DNA binding at 17 uM concentration
[8] = tested on: DNA topoisomerase 1 (Bos taurus); test: Ratio of DNA relaxation times by topoisomerase in presence of 18 uM of compound (t1/e(+drug) / t 1/e(-drug))

Compound	Ratio [1]	Ratio [4]	Ka1 (DNA [5])	other results
COc1cccc2c1C(=O)c1c(O)c3c(c(O)c1C2=O)C[C@@](O)(C(C)=O)C[C@@H]3OC1OC(C)C(CC2CC(O)C(CC3CCC(=O)C(C)O3)CO2)C(O)C1I (stereo not given in full)	1.4	–	–	Ratio [2]: Initial complete inhibition
COc1cccc2c1C(=O)c1c(O)c3c(c(O)c1C2=O)C[C@@](O)(C(C)=O)C[C@@H]3OC1CC(O)C(CC2CC(O)C(CC3CCC(=O)C(C)O3)CO2)C(C)O1 (stereo not given in full)	0.92	–	–	Ratio [3]: 1.4
COc1cccc2c1C(=O)c1c(O)c3c(c(O)c1C2=O)C[C@@](O)(C(C)=O)C[C@@H]3OC1OC(C)C(O)C(O)C1I (stereo in doubt; 2)	2	Complete inhibition	120	–
COc1cccc2c1C(=O)c1c(O)c3c(c(O)c1C2=O)C[C@@](O)(C(C)=O)C[C@@H]3OC1OC(C)C(O)C(O)C1I (stereo in doubt; form 2)	1.5	–	–	Ratio [6]: Complete inhibition; Ka1 (DNA [7]): 5
COc1cccc2c1C(=O)c1c(O)c3c(c(O)c1C2=O)C[C@@](O)(C(C)=O)C[C@@H]3OC1OC(c2ccccc2)C(O)C(O)C1I (stereo not given in full)	3.5	Complete inhibition	400	–
COc1cccc2c1C(=O)c1c(O)c3c(c(O)c1C2=O)C[C@@](O)(C(C)=O)C[C@@H]3OC1OC(C)C(O)C(O)C1I (stereo in doubt; form 1)	0.76	–	–	Ratio [8]: 1
